Test system: 242566-281-R-J2-PDC complex spheroid viability
Assay: Anticancer human tumor 242566-281-R-J2-PDC patient-derived pancreatic carcinoma cell line growth inhibition [CLK]
Conditions: for IC50: curve of first compound; for viability, T/C: stronger effect = lower value
From the text: A high-throughput screen of multi-cell type tumor spheroids was designed to identify active combinations of […] and targeted small molecules. Complex spheroids include a stromal component modeled by human endothelial cells (HUVEC) and fibroblasts modeled by human mesenchymal stem cells (MSCs). The concentration ranges selected for each drug and investigational agent were based upon clinically achievable concentrations if the clinical Cmax of the agent was known.
Compounds. The drugs and investigational agents: cirtuvivint (SM08502; NSC835563), CC-671 (NSC850746), vemurafenib (NSC761431), tapotoclax (NSC804041), sotorasib (NSC818433), adagrasib (NSC831453), MRTX-1133 (NSC836407), BAY2416964 (NSC825713), copanlisib (NSC816437), inavolisib (NSC800729), abemaciclib (NSC768073), osimertinib (NSC779217), entinostat (NSC756642), eltanexor (KPT-8602, NSC794443), venetoclax (NSC766270), ceralasertib (NSC777638), bortezomib (NSC756655), olaparib (NSC753686), talazoparib (NSC767125), alisertib (NSC759677), peposertib (NSC802822), gemcitabine (NSC613327), 5-fluorouracil (NSC19893), SN-38 (NSC673596), oxaliplatin (NSC266046), paclitaxel (NSC125973), and doxorubicin (NSC123127), were obtained from the National Cancer Institute (NCI) Developmental Therapeutics Program Chemical Repository. The FDA-approved anticancer drug set is available from the Developmental Therapeutics Program at https://dtp.cancer.gov/organization/dscb/obtaining/available plates.htm. […] The stock solutions were prepared in dimethyl sulfoxide (DMSO, Sigma-Aldrich, St. Louis, MO, cat. D2650), except for the platinum complexes which were prepared in saline (Quality Biological, Gaithersburg, MD, cat. 114-055-101), at 800-fold the tested concentration and stored at -70 degrees C prior to their use. All drugs and investigational agents were tested over a range starting from a high concentration at or near the clinical Cmax and decreasing in half-log increments. If the clinical Cmax for an agent had not been determined, the highest concentration tested was 10 microM.
Cell Culture. All cells were maintained in an incubator at 37 degrees C and 5% CO2 with 95% humidity. The PDC lines were cultured according to standard operating procedures established by the NCI PDMR. Briefly, all PDCs were thawed and cultured in Matrigel-coated flasks prepared with a working solution of 1X Ham's F-12 nutrient mix, without supplementation (Invitrogen, Waltham, MA, cat. 11765054), 100 U/mL penicillin-streptomycin (Invitrogen, cat. 15140122), and 2.5% Matrigel (Corning Inc., Corning, NY, cat. 354248) for the first three passages. The 947758-054-R-J2-PDC line was cultured in 6B/Colon 1A media, which includes advanced DMEM/F-12 (Thermo Fisher Scientific, cat. 12634028), 10 mM HEPES (Thermo Fisher Scientific, cat. 15630080), 1X GlutaMAX supplement (Thermo Fisher Scientific, cat. 35050061), 0.1 mg/mL primocin (InvivoGen, cat. ant-pm-2), 10% defined fetal bovine serum, heat inactivated (HyClone Laboratories Inc., cat. SH30070.03HI), 1.25 mM N-Acetyl-L-cysteine (Sigma-Aldrich, cat. A9165), 10 mM nicotinamide (Sigma-Aldrich, cat. N0636), 1X B-27 supplement (Thermo Fisher Scientific, cat. 17504044), 1X N-2 supplement (Thermo Fisher Scientific, cat. 17502048), and 10 microM Y-27632 dihydrochloride (Tocris Bioscience, cat. 1254). The 876862-298-R-J1-PDC was cultured in 6E media, which includes all 6B/Colon 1A media components plus 50% L-WRN conditioned media (ATCC, cat. CRL-3276), 50 ng/mL recombinant human EGF recombinant protein (hEGF; Thermo Fisher Scientific, cat. PHG0311), 10 ng/mL recombinant human fibroblast growth factor 10 (hGFG-10; PeproTech, cat. 100-26), 1 ng/mL recombinant human fibroblast growth factor 2 (hFGF-2; PeproTech, cat. 100-18B), and 1 µM prostaglandin E2 (PGE2; Tocris, cat. 2296). The 227483-062-R1-J1-PDC line was cultured in Panc media, containing all 6E components except hFGF-2, with the addition of 500 nM SB-431542 (Selleckchem, cat. S1067) and 10 nM gastrin (Tocris, cat. 3006). […]

[1] = second compound 0.0316 µM, first compound 0.0316 µM
[2] = second compound 0.0316 µM, first compound 0.1 µM
[3] = second compound 0.0316 µM, first compound 0.316 µM
[4] = second compound 0.0316 µM, first compound 1 µM
[5] = second compound 0.0316 µM, first compound 3.16 µM
[6] = second compound 0.0316 µM, first compound 10 µM
[7] = second compound 0.1 µM, first compound 0.0316 µM
[8] = second compound 0.1 µM, first compound 0.1 µM
[9] = second compound 0.1 µM, first compound 0.316 µM
[10] = second compound 0.1 µM, first compound 1 µM
[11] = second compound 0.1 µM, first compound 3.16 µM
[12] = second compound 0.1 µM, first compound 10 µM
[13] = second compound 0.316 µM, first compound 0.0316 µM
[14] = second compound 0.316 µM, first compound 0.1 µM
[15] = second compound 0.316 µM, first compound 0.316 µM
[16] = second compound 0.316 µM, first compound 1 µM
[17] = second compound 0.316 µM, first compound 3.16 µM
[18] = second compound 0.316 µM, first compound 10 µM
[19] = second compound 1 µM, first compound 0.0316 µM
[20] = second compound 1 µM, first compound 0.1 µM
[21] = second compound 1 µM, first compound 0.316 µM
[22] = second compound 1 µM, first compound 1 µM
[23] = second compound 1 µM, first compound 3.16 µM
[24] = second compound 1 µM, first compound 10 µM
[25] = second compound 3.16 µM, first compound 0.0316 µM
[26] = second compound 3.16 µM, first compound 0.1 µM
[27] = second compound 3.16 µM, first compound 0.316 µM
[28] = second compound 3.16 µM, first compound 1 µM
[29] = second compound 3.16 µM, first compound 3.16 µM
[30] = second compound 3.16 µM, first compound 10 µM
[31] = second compound 10 µM, first compound 0.0316 µM
[32] = second compound 10 µM, first compound 0.1 µM
[33] = second compound 10 µM, first compound 0.316 µM
[34] = second compound 10 µM, first compound 1 µM
[35] = second compound 10 µM, first compound 3.16 µM
[36] = second compound 10 µM, first compound 10 µM
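Also: spheroids exposed to compounds for 7 days before readout.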
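For viability, T/C in this document: 100% = DMSO vehicle control wells.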

C=CC(=O)N1CCN(c2nc(=O)n(-c3c(C)ccnc3C(C)C)c3nc(-c4c(O)cccc4F)c(F)cc23)C(C)C1 (centres undefined) + CN1CCN(c2cc(C(=O)Nc3cc4cc(-c5cnn(C)c5)ccc4cn3)ccn2)CC1
IC50 (second compound 0.0316 µM): > 10 µM
IC50 (second compound 0.1 µM): > 10 µM
IC50 (second compound 0.316 µM): < 0.0316 µM
IC50 (second compound 1 µM): < 0.0316 µM
IC50 (second compound 3.16 µM): < 0.0316 µM
IC50 (second compound 10 µM): < 0.0316 µM
viability, T/C [1]: 113%
viability, T/C [2]: 105%
viability, T/C [3]: 102%
viability, T/C [4]: 117%
viability, T/C [5]: 103%
viability, T/C [6]: 72.9%
viability, T/C [7]: 106%
viability, T/C [8]: 94.3%
viability, T/C [9]: 81.6%
viability, T/C [10]: 109%
viability, T/C [11]: 105%
viability, T/C [12]: 67.5%
viability, T/C [13]: 47.2%
viability, T/C [14]: 47.3%
viability, T/C [15]: 40.8%
viability, T/C [16]: 45.2%
viability, T/C [17]: 48.2%
viability, T/C [18]: 23.4%
viability, T/C [19]: 5.06%
viability, T/C [20]: 5.31%
viability, T/C [21]: 6.97%
viability, T/C [22]: 9.26%
viability, T/C [23]: 11.1%
viability, T/C [24]: 6.36%
viability, T/C [25]: 7.67%
viability, T/C [26]: 8.25%
viability, T/C [27]: 11.1%
viability, T/C [28]: 11.7%
viability, T/C [29]: 11.6%
viability, T/C [30]: 8.7%
viability, T/C [31]: 2.18%
viability, T/C [32]: 2.58%
viability, T/C [33]: 2.81%
viability, T/C [34]: 4.46%
viability, T/C [35]: 4.9%
viability, T/C [36]: 2.7%

COC1C=CCC(C)C(C)S(=O)(=O)NC(=O)c2ccc3c(c2)N(CC2CCC21)CC1(CCCc2cc(Cl)ccc21)CO3 (centres undefined) + CN1CCN(c2cc(C(=O)Nc3cc4cc(-c5cnn(C)c5)ccc4cn3)ccn2)CC1
IC50 (second compound 0.0316 µM): 5.3 µM
IC50 (second compound 0.1 µM): 3.44 µM
IC50 (second compound 0.316 µM): < 0.0316 µM
IC50 (second compound 1 µM): < 0.0316 µM
IC50 (second compound 3.16 µM): < 0.0316 µM
IC50 (second compound 10 µM): < 0.0316 µM
viability, T/C [1]: 93%
viability, T/C [2]: 119%
viability, T/C [3]: 101%
viability, T/C [4]: 81.6%
viability, T/C [5]: 78.9%
viability, T/C [6]: 20.3%
viability, T/C [7]: 93.2%
viability, T/C [8]: 94.1%
viability, T/C [9]: 87.8%
viability, T/C [10]: 66.6%
viability, T/C [11]: 56.6%
viability, T/C [12]: 16.5%
viability, T/C [13]: 37.5%
viability, T/C [14]: 34.1%
viability, T/C [15]: 28.7%
viability, T/C [16]: 16.1%
viability, T/C [17]: 12.8%
viability, T/C [18]: 3.62%
viability, T/C [19]: 4.66%
viability, T/C [20]: 4.57%
viability, T/C [21]: 3.7%
viability, T/C [22]: 4.79%
viability, T/C [23]: 3.13%
viability, T/C [24]: 2.17%
viability, T/C [25]: 7.61%
viability, T/C [26]: 7.11%
viability, T/C [27]: 6.63%
viability, T/C [28]: 7.11%
viability, T/C [29]: 6.71%
viability, T/C [30]: 4.96%
viability, T/C [31]: 1.98%
viability, T/C [32]: 1.96%
viability, T/C [33]: 1.79%
viability, T/C [34]: 1.93%
viability, T/C [35]: 1.82%
viability, T/C [36]: 0.48%

Source: PubChem BioAssay AID2060622 (Molecular Pharmacology Branch, DTP, NCI, 2025)
